Measured values published in ChEMBL document CHEMBL4732099, “ROS-responsive and multifunctional anti-Alzheimer prodrugs: Tacrine-ibuprofen hybrids via a phenyl boronate linker” (Eur J Med Chem, 2021).
Active and inactive are the calls of the source. No cut-off for these calls is given here.

What was measured:
[1] = Drug uptake in human SH-SY5Y cells at 10 uM measured after 12 hrs by laser scanning confocal microscopic analysis; format: ADME, cell-based
[2] = Drug uptake in mouse BV-2 cells at 10 uM measured after 12 hrs by laser scanning confocal microscopic analysis; format: ADME, cell-based; conditions: bv-2, 12 h
[3] = target: Acetylcholinesterase (Electrophorus electricus, UniProt O42275); test: Inhibition of electric eel AChE using acetylthiocholine iodide as substrate preincubated for 5 mins followed by substrate addition and measured after 1 min in presence of H2O2 by Ellman's method
[4] = tested on: SH-SY5Y; test: Cytotoxicity against human SH-SY5Y cells assessed as reduction in cell viability at 7.81 to 15.62 uM measured after 72 hrs by MTT assay; format: cell-based; conditions: dose 7.81-15.62 µM
[5] = target: Acetylcholinesterase (Electrophorus electricus) (UniProt O42275); test: Inhibition of electric eel AChE at 10 uM using acetylthiocholine iodide as substrate preincubated for 5 mins followed by substrate addition and measured after 1 min by Ellman's method relative to control; conditions: time 6.0 min
[6] = tested on: SH-SY5Y; test: Cytotoxicity against human SH-SY5Y cells assessed as reduction in cell viability at 31.25 uM measured after 72 hrs by MTT assay; format: cell-based
[7] = tested on: SH-SY5Y; test: Neuroprotective activity against H2O2-induced cytotoxicity in human SH-SY5Y cells assessed as cell viability at 5 uM preincubated for 6 hrs followed by H2O2 addition and measured after 24 hrs by MTT assay (reference value: 20%); format: functional; conditions: time 30 hrs, read-out: Activity
[8] = tested on: SH-SY5Y; test: Neuroprotective activity against H2O2-induced apoptosis in human SH-SY5Y cells assessed as increase in Bcl-2 expression at 10 uM preincubated for 6 hrs followed by H2O2 addition and measured after 24 hrs by Western blot analysis; format: functional, cell-based; conditions: time 30.0 hrs
[9] = tested on: SH-SY5Y; test: Neuroprotective activity against H2O2-induced apoptosis in human SH-SY5Y cells assessed as reduction in cleaved caspase-3 expression at 10 uM preincubated for 6 hrs followed by H2O2 addition and measured after 24 hrs by Western blot analysis; format: functional, cell-based; conditions: time 30.0 hrs
[10] = tested on: SH-SY5Y; test: Neuroprotective activity against H2O2-induced apoptosis in human SH-SY5Y cells assessed as reduction in Bax expression at 10 uM preincubated for 6 hrs followed by H2O2 addition and measured after 24 hrs by Western blot analysis; format: functional, cell-based; conditions: time 30.0 hrs

Sequence of Acetylcholinesterase (O42275 whole entry): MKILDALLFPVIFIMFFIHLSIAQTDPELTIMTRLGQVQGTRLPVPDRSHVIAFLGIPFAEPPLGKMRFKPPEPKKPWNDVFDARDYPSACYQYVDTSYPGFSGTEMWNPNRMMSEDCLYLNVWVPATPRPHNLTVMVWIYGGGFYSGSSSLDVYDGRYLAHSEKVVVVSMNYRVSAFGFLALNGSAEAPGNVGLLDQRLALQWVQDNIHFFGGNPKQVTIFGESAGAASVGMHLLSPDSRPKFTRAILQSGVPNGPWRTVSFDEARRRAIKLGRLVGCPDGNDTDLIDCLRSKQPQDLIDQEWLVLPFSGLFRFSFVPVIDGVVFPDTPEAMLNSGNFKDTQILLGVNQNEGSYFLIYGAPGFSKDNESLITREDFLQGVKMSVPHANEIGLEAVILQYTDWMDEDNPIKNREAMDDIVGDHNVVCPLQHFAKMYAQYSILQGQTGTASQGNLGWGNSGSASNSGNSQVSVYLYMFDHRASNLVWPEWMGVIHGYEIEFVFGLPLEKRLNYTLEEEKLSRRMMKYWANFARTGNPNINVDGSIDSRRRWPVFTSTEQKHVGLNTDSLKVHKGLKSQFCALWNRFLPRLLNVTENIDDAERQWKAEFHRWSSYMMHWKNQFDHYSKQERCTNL
Sequence of Acetylcholinesterase (Electrophorus electricus) (O42275 24-633 limits assumed): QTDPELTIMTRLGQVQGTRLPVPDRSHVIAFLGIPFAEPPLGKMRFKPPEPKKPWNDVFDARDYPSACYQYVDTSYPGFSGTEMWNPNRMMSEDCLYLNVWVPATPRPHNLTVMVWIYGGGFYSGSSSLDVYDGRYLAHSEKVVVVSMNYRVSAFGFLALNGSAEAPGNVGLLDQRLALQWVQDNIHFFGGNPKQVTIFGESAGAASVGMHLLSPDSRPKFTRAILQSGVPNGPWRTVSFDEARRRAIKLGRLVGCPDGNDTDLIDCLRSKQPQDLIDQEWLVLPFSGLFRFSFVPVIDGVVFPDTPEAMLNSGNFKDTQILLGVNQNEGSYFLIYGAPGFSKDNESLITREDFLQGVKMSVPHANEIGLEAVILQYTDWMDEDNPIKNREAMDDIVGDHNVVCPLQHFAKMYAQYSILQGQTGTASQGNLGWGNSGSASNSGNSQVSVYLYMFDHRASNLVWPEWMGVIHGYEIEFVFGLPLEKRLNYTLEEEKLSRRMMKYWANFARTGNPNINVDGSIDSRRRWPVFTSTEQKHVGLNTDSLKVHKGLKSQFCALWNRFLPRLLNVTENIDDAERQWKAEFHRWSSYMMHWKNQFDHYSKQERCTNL

Compound: Cc1cc(COC(=O)CCCCCOc2ccc3ccc(=O)oc3c2)c(OCc2ccc(B3OC(C)(C)C(C)(C)O3)cc2)c(COC(=O)C(C)c2ccc(CC(C)C)cc2)c1 (stereo not given)
- Drug uptake [1]: Active
- Drug uptake [2]: Active

Compound: Cc1cc(COC(=O)NCCCCNc2c3c(nc4ccccc24)CCCC3)c(OCc2ccc(B3OC(C)(C)C(C)(C)O3)cc2)c(COC(=O)C(C)c2ccc(CC(C)C)cc2)c1 (stereo not given)
- IC50 [3]: 80 nM
- Activity [4]: Non-Toxic
- inhibition [5]: 46%
- Activity [6]: Toxic
- viability at 5 µM [7]: > 50%

Compound: COc1cc(/C=C/C(=O)O)ccc1O
- Activity [8]: Active
- Activity [9]: Active
- Activity [10]: Active
